Read-outs that look alike come from different tables or passages of the source.
Molecular target: Nav 1.7 (Homo sapiens (Human), UniProt Q15858)
Test: in-vitro Nav 1.7 PX (IC50)
Format: cell-based

Chain of Nav 1.7 (Q15858 whole entry): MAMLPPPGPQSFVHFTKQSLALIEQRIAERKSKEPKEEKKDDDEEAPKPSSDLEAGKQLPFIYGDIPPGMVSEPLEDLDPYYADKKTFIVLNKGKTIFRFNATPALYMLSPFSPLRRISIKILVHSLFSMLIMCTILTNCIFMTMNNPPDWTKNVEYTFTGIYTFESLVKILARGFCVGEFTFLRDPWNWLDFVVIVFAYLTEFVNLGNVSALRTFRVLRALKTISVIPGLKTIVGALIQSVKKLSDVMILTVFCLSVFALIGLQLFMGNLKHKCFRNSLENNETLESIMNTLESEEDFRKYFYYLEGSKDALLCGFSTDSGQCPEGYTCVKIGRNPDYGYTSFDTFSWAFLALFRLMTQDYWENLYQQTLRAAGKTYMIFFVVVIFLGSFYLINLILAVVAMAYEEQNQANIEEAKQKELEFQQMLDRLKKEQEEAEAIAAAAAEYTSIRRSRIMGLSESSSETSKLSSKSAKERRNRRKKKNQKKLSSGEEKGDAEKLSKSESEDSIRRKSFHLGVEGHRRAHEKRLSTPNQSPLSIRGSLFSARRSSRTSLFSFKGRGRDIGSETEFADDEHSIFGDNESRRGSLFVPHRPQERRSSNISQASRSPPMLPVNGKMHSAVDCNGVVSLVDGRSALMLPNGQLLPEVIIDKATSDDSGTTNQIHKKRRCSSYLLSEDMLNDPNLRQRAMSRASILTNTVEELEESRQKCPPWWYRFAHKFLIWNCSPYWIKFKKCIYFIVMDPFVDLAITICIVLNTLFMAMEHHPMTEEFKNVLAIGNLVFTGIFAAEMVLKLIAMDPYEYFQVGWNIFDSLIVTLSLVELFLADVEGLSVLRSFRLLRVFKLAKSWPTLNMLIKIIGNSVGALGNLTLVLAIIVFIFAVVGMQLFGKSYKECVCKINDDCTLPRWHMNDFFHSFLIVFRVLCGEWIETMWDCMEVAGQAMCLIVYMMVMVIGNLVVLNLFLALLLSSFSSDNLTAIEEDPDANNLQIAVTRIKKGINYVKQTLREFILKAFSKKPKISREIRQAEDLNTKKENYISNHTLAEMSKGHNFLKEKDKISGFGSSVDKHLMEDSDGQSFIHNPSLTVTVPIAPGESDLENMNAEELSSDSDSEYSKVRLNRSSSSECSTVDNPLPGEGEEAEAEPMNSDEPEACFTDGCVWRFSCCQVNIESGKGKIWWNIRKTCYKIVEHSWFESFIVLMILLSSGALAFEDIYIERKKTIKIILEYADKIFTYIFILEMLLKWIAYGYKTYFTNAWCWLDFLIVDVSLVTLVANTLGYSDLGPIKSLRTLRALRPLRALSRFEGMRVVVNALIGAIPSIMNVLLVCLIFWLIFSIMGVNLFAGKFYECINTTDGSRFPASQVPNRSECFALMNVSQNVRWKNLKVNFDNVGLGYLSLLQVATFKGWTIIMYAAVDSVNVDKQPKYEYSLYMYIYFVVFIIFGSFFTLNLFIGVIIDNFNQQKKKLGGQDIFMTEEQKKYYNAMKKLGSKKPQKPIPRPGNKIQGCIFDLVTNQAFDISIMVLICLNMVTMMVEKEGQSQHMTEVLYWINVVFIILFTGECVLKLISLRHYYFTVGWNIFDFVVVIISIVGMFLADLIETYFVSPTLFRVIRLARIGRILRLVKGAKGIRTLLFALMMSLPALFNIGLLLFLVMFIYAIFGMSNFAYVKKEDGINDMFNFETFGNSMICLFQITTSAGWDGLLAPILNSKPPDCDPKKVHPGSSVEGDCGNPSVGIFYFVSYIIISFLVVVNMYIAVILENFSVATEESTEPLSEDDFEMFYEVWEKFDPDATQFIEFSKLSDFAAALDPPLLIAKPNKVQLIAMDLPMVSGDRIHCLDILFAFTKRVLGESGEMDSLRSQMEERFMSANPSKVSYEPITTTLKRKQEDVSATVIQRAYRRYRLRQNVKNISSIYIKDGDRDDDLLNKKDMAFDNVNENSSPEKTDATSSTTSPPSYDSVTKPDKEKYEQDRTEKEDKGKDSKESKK

IC50 [µM] | Compound | also measured
3.89 | COc1cc(-c2cccc(Cl)c2)c(C)cc1-n1c(=O)ccc2cc(S(=O)(=O)Nc3ncccn3)ccc21 (atropisomer, axis not shown; (M)) [Example 322, (M)-1-(3′-chloro-5-methoxy-2-methyl-4-biphenylyl)-2-oxo-N-2-pyrimidinyl-1,2-dihydro-6-quinolinesulfonamide] | –
3.08 | COc1ccc(-c2cccc(C(F)(F)F)c2)cc1-n1c(=O)ccc2cc(S(=O)(=O)Nc3ccon3)ccc21 (atropisomer, axis not shown; (M)) [Example 382, (M)-N-3-isoxazolyl-1-(4-methoxy-3′-(trifluoromethyl)-3-biphenylyl)-2-oxo-1,2-dihydro-6-quinolinesulfonamide] | –
0.309 | COc1cc(-c2cc(F)cc(Cl)c2)c(C)cc1-n1c(=O)ccc2cc(S(=O)(=O)Nc3ccon3)ccc21 (atropisomer, axis not shown; (M)) [Example 418, (M)-1-(3′-chloro-5′-fluoro-5-methoxy-2-methyl-4-biphenylyl)-N-3-isoxazolyl-2-oxo-1,2-dihydro-6-quinolinesulfonamide] | –
6.09 | COc1cc(-c2ccc(Cl)c(C)c2)c(C)cc1-n1c(=O)ccc2cc(S(=O)(=O)Nc3ccon3)ccc21 (atropisomer, axis not shown; (M)) [Example 422, (M)-1-(4′-chloro-5-methoxy-2,3′-dimethyl-4-biphenylyl)-N-3-isoxazolyl-2-oxo-1,2-dihydro-6-quinolinesulfonamide] | –
20.1 | COc1cc(-c2cc(F)cnc2OC)c(C)cc1-n1c(=O)ccc2cc(S(=O)(=O)Nc3ccon3)ccc21 (atropisomer, axis not shown; (M)) [Example 425, (M)-1-(4-(5-fluoro-2-methoxy-3-pyridinyl)-2-methoxy-5-methylphenyl)-N-3-isoxazolyl-2-oxo-1,2-dihydro-6-quinolinesulfonamide] | –
7.59 | COc1cc(-c2cccc(F)c2)c(C)cc1-n1c(=O)ccc2cc(S(=O)(=O)Nc3ccon3)ccc21 (atropisomer, axis not shown; (M)) [Example 428, (M)-1-(3′-fluoro-5-methoxy-2-methyl-4-biphenylyl)-N-3-isoxazolyl-2-oxo-1,2-dihydro-6-quinolinesulfonamide] | –
1.59 | COc1cc(-c2cc(F)cc(Cl)c2)ccc1-n1c(=O)ccc2cc(S(=O)(=O)Nc3ccon3)ccc21 (atropisomer, axis not shown; (M)) [Example 429, (M)-1-(3′-chloro-5′-fluoro-3-methoxy-4-biphenylyl)-N-3-isoxazolyl-2-oxo-1,2-dihydro-6-quinolinesulfonamide] | –
5.05 | COc1cc(-c2ccc(Cl)c(C)c2)ccc1-n1c(=O)ccc2cc(S(=O)(=O)Nc3ccon3)ccc21 (atropisomer, axis not shown; (M)) [Example 431, (M)-1-(4′-chloro-3-methoxy-3′-methyl-4-biphenylyl)-N-3-isoxazolyl-2-oxo-1,2-dihydro-6-quinolinesulfonamide] | –
1.84 | COc1cc(-c2cc(F)cc(Cl)c2)c(C#N)cc1-n1c(=O)ccc2cc(S(=O)(=O)Nc3ccon3)ccc21 (atropisomer, axis not shown; (M)) [Example 434, (M)-1-(3′-chloro-2-cyano-5′-fluoro-5-methoxy-4-biphenylyl)-N-3-isoxazolyl-2-oxo-1,2-dihydro-6-quinolinesulfonamide] | –

The next lines start with the compound.

Compound | IC50 [µM] | also measured
1-(2′-chloro-5-methoxy-2,3′-dimethyl-4-biphenylyl)-2-oxo-N-2-pyrimidinyl-1,2-dihydro-6-quinolinesulfonamide [Example 961] | 0.056 | –
1-(3′-(difluoromethoxy)-2-fluoro-5-methoxy-4-biphenylyl)-N-(5-fluoro-2-pyrimidinyl)-2-oxo-1,2-dihydro-6-quinolinesulfonamide [Example 907] | – | IC50 (in-vitro Nav 1.7 PX data): 0.191 µM
1-(4′-chloro-2-fluoro-3′,5-dimethyl-4-biphenylyl)-2-oxo-N-3-pyridazinyl-1,2-dihydro-6-quinolinesulfonamide [Example 973] | – | IC50 (in-vitro Nav 1.7 PX data): 0.09 µM
COc1cc(-c2ccc(Cl)cc2)c(F)cc1-n1c(=O)ccc2cc(S(=O)(=O)Nc3ncccn3)ccc21 (atropisomer, axis not shown) [Example 598, 1-(4′-chloro-2-fluoro-5-methoxy-4-biphenylyl)-2-oxo-N-2-pyrimidinyl-1,2-dihydro-6-quinolinesulfonamide] | – | IC50 (in-vitro Nav 1.7 PX data): 0.028 µM
COc1cc(-c2cccc(Cl)c2)c(C)cc1-n1c(=O)ccc2cc(S(=O)(=O)Nc3ccon3)ccc21 (atropisomer, axis not shown; (M)) [Example 313, (M)-1-(3′-chloro-5-methoxy-2-methyl-4-biphenylyl)-N-3-isoxazolyl-2-oxo-1,2-dihydro-6-quinolinesulfonamide] | 0.799 | –
COc1cc(-c2cccc(Cl)c2)cc(F)c1-n1c(=O)ccc2cc(S(=O)(=O)Nc3ccon3)ccc21 (atropisomer, axis not shown; (M)) [Example 319, (M)-1-(3′-chloro-3-fluoro-5-methoxy-4-biphenylyl)-N-3-isoxazolyl-2-oxo-1,2-dihydro-6-quinolinesulfonamide] | 0.207 | –
COc1cc(-c2cccc(F)c2)c(Cl)cc1-n1c(=O)ccc2cc(S(=O)(=O)Nc3nncs3)ccc21 (atropisomer, axis not shown; (M)) [Example 354, (M)-1-(2-chloro-3′-fluoro-5-methoxy-[1,1′-biphenyl]-4-yl)-2-oxo-N-(1,3,4-THIADIAZOL-2-yl)-1,2-dihydroquinoline-6-sulfonamide] | 5.86 | –
COc1cc(-c2cccc(F)c2)c(Cl)cc1-n1c(=O)ccc2cc(S(=O)(=O)Nc3ccon3)c(F)cc21 (atropisomer, axis not shown; (M)) [Example 357, (M)-1-(2-chloro-3′-fluoro-5-methoxy-[1,1′-biphenyl]-4-yl)-7-fluoro-N-(isoxazol-3-yl)-2-oxo-1,2-dihydroquinoline-6-sulfonamide] | 0.04 | –
COc1cc(-c2ccc(F)c(Cl)c2)c(F)cc1-n1c(=O)ccc2cc(S(=O)(=O)Nc3ccon3)ccc21 (atropisomer, axis not shown; (M)) [Example 366, (M)-1-(3′-chloro-2,4′-difluoro-5-methoxy-4-biphenylyl)-N-3-isoxazolyl-2-oxo-1,2-dihydro-6-quinolinesulfonamide] | – | IC50 (in-vitro PatchXpress (PX)): 1.26 µM
COc1cc(-c2ccc(Cl)c(C)c2)c(Cl)cc1-n1c(=O)ccc2cc(S(=O)(=O)Nc3ccncn3)ccc21 (atropisomer, axis not shown; (M)) [Example 368, (M)-1-(2,4′-dichloro-5-methoxy-3′-methyl-4-biphenylyl)-2-oxo-N-4-pyrimidinyl-1,2-dihydro-6-quinolinesulfonamide] | – | IC50 (in-vitro PatchXpress (PX)): 0.677 µM
COc1cc(-c2cccc(C(F)(F)F)c2)ccc1-n1c(=O)ccc2cc(S(=O)(=O)Nc3cccnn3)ccc21 (atropisomer, axis not shown; (M)) [Example 370, (M)-1-(3-methoxy-3′-(trifluoromethyl)-4-biphenylyl)-2-oxo-N-3-pyridazinyl-1,2-dihydro-6-quinolinesulfonamide] | – | IC50 (in-vitro PatchXpress (PX)): 2.43 µM
COc1cc(-c2ccc(Cl)c(C)c2)ccc1-n1c(=O)ccc2cc(S(=O)(=O)Nc3cccnn3)ccc21 (atropisomer, axis not shown; (M)) [Example 372, (M)-1-(4′-chloro-3-methoxy-3′-methyl-4-biphenylyl)-2-oxo-N-3-pyridazinyl-1,2-dihydro-6-quinolinesulfonamide] | – | IC50 (in-vitro PatchXpress (PX)): 0.029 µM
CCOc1cc(-c2cccc(F)c2)c(F)cc1-n1c(=O)ccc2cc(S(=O)(=O)Nc3ccon3)ccc21 (atropisomer, axis not shown; (M)) [Example 389, (M)-1-(5-ethoxy-2,3′-difluoro-[1,1′-biphenyl]-4-yl)-N-(isoxazol-3-yl)-2-oxo-1,2-dihydroquinoline-6-sulfonamide] | 0.239 | –
COc1cc(-c2cncc(Cl)c2)c(F)cc1-n1c(=O)ccc2cc(S(=O)(=O)Nc3ccon3)ccc21 (atropisomer, axis not shown; (M)) [Example 409, (M)-1-(4-(5-chloro-3-pyridinyl)-5-fluoro-2-methoxyphenyl)-N-3-isoxazolyl-2-oxo-1,2-dihydro-6-quinolinesulfonamide] | – | IC50 (in-vitro PatchXpress (PX)): 0.06 µM
COc1cc(-c2ccc(Cl)c(C)c2)c(F)cc1-n1c(=O)c(OC)cc2cc(S(=O)(=O)Nc3ccon3)ccc21 (atropisomer, axis not shown; (M)) [Example 413, (M)-1-(4′-chloro-2-fluoro-5-methoxy-3′-methyl-[1,1′-biphenyl]-4-yl)-N-(isoxazol-3-yl)-3-methoxy-2-oxo-1,2-dihydroquinoline-6-sulfonamide] | 5.89 | –
COc1cc(-c2cccc(Cl)c2)c(Cl)cc1-n1c(=O)ccc2cc(S(=O)(=O)Nc3ccon3)ccc21 (atropisomer, axis not shown; (M)) [Example 460, (M)-1-(2,3′-dichloro-5-methoxy-[1,1′-biphenyl]-4-yl)-N-(isoxazol-3-yl)-2-oxo-1,2-dihydroquinoline-6-sulfonamide] | 1.76 | –
COc1cc(-c2cc(F)cc(Cl)c2)c(Cl)cc1-n1c(=O)ccc2cc(S(=O)(=O)Nc3ccon3)ccc21 (atropisomer, axis not shown; (M)) [Example 462, (M)-1-(2,3′-dichloro-5′-fluoro-5-methoxy-[1,1′-biphenyl]-4-yl)-N-(isoxazol-3-yl)-2-oxo-1,2-dihydroquinoline-6-sulfonamide] | 0.193 | –
COc1cc(-c2cccc(F)c2)c(Cl)cc1-n1c(=O)ccc2cc(S(=O)(=O)Nc3ccncn3)ccc21 (atropisomer, axis not shown; (M)) [Example 466, (M)-1-(2-chloro-3′-fluoro-5-methoxy-[1,1′-biphenyl]-4-yl)-2-oxo-N-(pyrimidin-4-yl)-1,2-dihydroquinoline-6-sulfonamide] | 4.32 | –
COc1cc(-c2cccc(F)c2)c(Cl)cc1-n1c(=O)ccc2cc(S(=O)(=O)Nc3cccnn3)ccc21 (atropisomer, axis not shown; (M)) [Example 468, (M)-1-(2-chloro-3′-fluoro-5-methoxy-[1,1′-biphenyl]-4-yl)-2-oxo-N-(pyridazin-3-yl)-1,2-dihydroquinoline-6-sulfonamide] | 7 | –
